{"source": "patent US10654833B2", "about": "“ASK1 isoindolin-1-one inhibitors and methods of use thereof” (Hepatikos Therapeutics, LLC, priority 2018, dated 2020)", "note": "pIC50: −log10 of the molar value."}
{"target": "recombinant human ASK1 protein (Homo sapiens (Human), UniProt Q99683)", "sequence (Q99683 whole entry)": "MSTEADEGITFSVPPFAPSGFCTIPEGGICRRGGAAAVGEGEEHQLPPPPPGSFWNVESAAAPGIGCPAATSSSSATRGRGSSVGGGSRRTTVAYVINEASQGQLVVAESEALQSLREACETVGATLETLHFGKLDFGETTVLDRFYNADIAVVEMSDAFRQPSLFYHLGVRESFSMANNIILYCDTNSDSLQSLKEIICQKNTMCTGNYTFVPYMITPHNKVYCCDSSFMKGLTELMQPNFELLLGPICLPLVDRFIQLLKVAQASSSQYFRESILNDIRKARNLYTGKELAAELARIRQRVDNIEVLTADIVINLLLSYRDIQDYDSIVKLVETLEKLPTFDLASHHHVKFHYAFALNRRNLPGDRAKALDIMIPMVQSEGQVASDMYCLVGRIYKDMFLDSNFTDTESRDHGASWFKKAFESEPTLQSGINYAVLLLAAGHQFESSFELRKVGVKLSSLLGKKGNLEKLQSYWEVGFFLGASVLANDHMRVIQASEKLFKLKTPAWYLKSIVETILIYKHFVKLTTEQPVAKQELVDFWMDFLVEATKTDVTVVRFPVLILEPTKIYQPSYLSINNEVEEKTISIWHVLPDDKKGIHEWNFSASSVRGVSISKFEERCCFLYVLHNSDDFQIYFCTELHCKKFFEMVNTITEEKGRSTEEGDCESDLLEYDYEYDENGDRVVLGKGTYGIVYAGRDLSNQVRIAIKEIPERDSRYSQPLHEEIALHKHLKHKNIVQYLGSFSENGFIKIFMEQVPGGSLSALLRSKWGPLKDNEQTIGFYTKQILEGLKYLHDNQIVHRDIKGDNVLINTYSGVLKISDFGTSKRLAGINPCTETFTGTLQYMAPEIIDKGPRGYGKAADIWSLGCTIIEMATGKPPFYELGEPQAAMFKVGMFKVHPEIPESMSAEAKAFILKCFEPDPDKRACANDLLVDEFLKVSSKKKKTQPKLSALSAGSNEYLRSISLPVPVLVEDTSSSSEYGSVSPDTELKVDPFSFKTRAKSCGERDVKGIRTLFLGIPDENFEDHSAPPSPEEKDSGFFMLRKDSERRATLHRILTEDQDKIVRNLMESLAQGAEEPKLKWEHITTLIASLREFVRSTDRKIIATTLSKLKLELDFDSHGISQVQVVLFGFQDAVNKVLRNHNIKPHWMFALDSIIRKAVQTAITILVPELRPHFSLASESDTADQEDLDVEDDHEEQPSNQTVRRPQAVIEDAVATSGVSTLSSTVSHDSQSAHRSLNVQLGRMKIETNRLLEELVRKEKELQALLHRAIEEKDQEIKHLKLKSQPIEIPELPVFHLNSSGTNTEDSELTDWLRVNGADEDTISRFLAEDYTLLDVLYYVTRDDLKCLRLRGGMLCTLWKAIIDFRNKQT", "experiment": "ASK1 kinase activity inhibition assay (radiometric 33P incorporation into MBP)", "format": "biochemical", "conditions": "Table 3; 20 μM MBP, 10 μM 33P-ATP", "procedure": "ASK1 Kinase Activity Inhibition Assay\nInhibition of ASK1 kinase activity was determined radiometrically using 33P substrate incorporation (Reaction Biology Corp., Malvern, Pa.). Briefly, recombinant human ASK1 protein, 20 μM substrate (myelin basic protein (MBP)), and compound (diluted from DMSO stock to give 1% final DMSO) were incubated in Base Reaction buffer (20 mM Hepes (pH 7.5), 10 mM MgCl2, 1 mM EGTA, 0.02% Brij35, 0.02 mg/mL BSA, 0.1 mM Na3VO4, 2 mM DTT, 1% DMSO) at room temperature for 20 minutes. The reaction was initiated by addition of 10 μM 33P-ATP (specific activity […]). The reaction was then allowed to proceed for 2 hours at room temperature. Upon reaction termination, the mixture was spotted on P81 exchange paper and kinase activity by incorporation of 33P into MBP substrate was detected by filter-binding method."}
{"smiles": "CC(C)n1cnnc1-c1cccc(N2Cc3ccc(-c4cncc(C(=O)O)c4)cc3C2=O)n1", "note": "[Compound 63, 5-(2-(6-(4-Isopropyl-4H-1,2,4-triazol-3-yl)pyridin-2-yl)-3-oxoisoindolin-5-yl)nicotinic Acid]", "pIC50": 8.29}
{"smiles": "O=C1c2cc(-c3ccc(-c4nnn[nH]4)cc3)ccc2CN1c1cccc(-c2nncn2C2CC2)n1", "note": "[Compound 92, 6-(4-(2H-Tetrazol-5-yl)phenyl)-2-(6-(4-cyclopropyl-4H-1,2,4-triazol-3-yl)pyridin-2-yl)isoindolin-1-one]", "pIC50": 8.26}
{"smiles": "COc1ncc(-c2ccc3c(c2)C(=O)N(c2cccc(-c4nncn4C(C)C)n2)C3)cc1C(=O)O", "note": "[Compound 116, 5-(2-(6-(4-Isopropyl-4H-1,2,4-triazol-3-yl)pyridine-2-yl)-3-oxoisoindolin-5-yl)-2-methoxynicotinic Acid]", "pIC50": 8.34}
{"smiles": "O=C1c2cc(-c3ccc(C4(C(=O)O)CC4)cc3)ccc2CN1c1cccc(-c2nncn2C2CC2)n1", "note": "[Compound 87, 1-(4-(2-(6-(4-Cyclopropyl-4H-1,2,4-triazol-3-yl)pyridin-2-yl)-3-oxoisoindolin-5-yl)phenyl)cyclopropane-1-carboxylic Acid]", "pIC50": 8.60}
{"smiles": "CC(C)n1cnnc1-c1cccc(N2Cc3ccc(-c4nccc(C(=O)O)c4F)cc3C2=O)n1", "note": "[Compound 113, 3-Fluoro-2-(2-(6-(4-isopropyl-4H-1,2,4-triazol-3-yl) 103yridine-2-yl)-3-oxoisoindolin-5-yl) Isonicotinic Acid]", "pIC50": 8.80}
{"smiles": "Cc1cc(F)c(C(=O)O)cc1-c1ccc2c(c1)C(=O)N(c1cccc(-c3nncn3C(C)C)n1)C2", "note": "[Compound 79, 2-Fluoro-5-(2-(6-(4-isopropyl-4H-1,2,4-triazol-3-yl)pyridin-2-yl)-3-oxoisoindolin-5-yl)-4-methylbenzoic Acid]", "pIC50": 8.34}
{"smiles": "CC(C)n1cnnc1-c1cccc(N2Cc3ccc(-c4cccc(C5(C(=O)O)CC5)c4)cc3C2=O)n1", "note": "[Compound 105, 1-(3-(2-(6-(4-Isopropyl-4H-1,2,4-triazol-3-yl)pyridin-2-yl)-3-oxoisoindolin-5-yl)phenyl)cyclopropane-1-carboxylic Acid]", "pIC50": 8.14}
{"smiles": "CC(C)n1cnnc1-c1cccc(N2Cc3ccc(-c4cc(F)c(C(=O)O)c(F)c4)cc3C2=O)n1", "note": "[Compound 78, 2,6-Difluoro-4-(2-(6-(4-isopropyl-4H-1,2,4-triazol-3-yl)pyridin-2-yl)-3-oxoisoindolin-5-yl) Benzoic Acid]", "pIC50": 8.34}
{"smiles": "CC(C)n1cnnc1-c1cccc(N2Cc3ccc(-c4ccc(O)c(C(=O)O)c4)cc3C2=O)n1", "note": "[Compound 64, 2-Hydroxy-5-(2-(6-(4-isopropyl-4H-1,2,4-triazol-3-yl)pyridin-2-yl)-3-oxoisoindolin-5-yl)benzoic Acid]", "pIC50": 8.15}
{"smiles": "CC(C)n1cnnc1-c1cccc(N2Cc3ccc(-c4ccc(-c5nnn[nH]5)cc4)cc3C2=O)n1", "note": "[Compound 91, 6-(4-(2H-Tetrazol-5-yl)phenyl)-2-(6-(4-isopropyl-4H-1,2,4-triazol-3-yl)pyridin-2-yl)isoindolin-1-one]", "pIC50": 8.10}
{"smiles": "COc1c(C)cc(-c2ccc3c(c2)C(=O)N(c2cccc(-c4nncn4C(C)C)n2)C3)cc1C(=O)O", "note": "[Compound 80, 5-(2-(6-(4-Isopropyl-4H-1,2,4-triazol-3-yl)pyridin-2-yl)-3-oxoisoindolin-5-yl)-2-methoxy-3-methylbenzoic Acid]", "pIC50": 8.28}
{"smiles": "CC(C)n1cnnc1-c1cccc(N2Cc3ccc(-c4cccc(OCC(=O)O)c4)cc3C2=O)n1", "note": "[Compound 108, 2-(3-(2-(6-(4-Isopropyl-4H-1,2,4-triazol-3-yl)pyridin-2-yl)-3-oxoisoindolin-5-yl)phenoxy) Acetic Acid]", "pIC50": 8.28}
{"smiles": "Cc1ccc(-c2ccc3c(c2)C(=O)N(c2cccc(-c4nncn4C(C)C)n2)C3)cc1C(=O)O", "note": "[Compound 9, 5-(2-(6-(4-Isopropyl-4H-1,2,4-triazol-3-yl)pyridin-2-yl)-3-oxoisoindolin-5-yl)-2-methylbenzoic acid]", "pIC50": 8.25}
{"smiles": "CCc1sc(C(=O)O)cc1-c1ccc2c(c1)C(=O)N(c1cccc(-c3nncn3C(C)C)n1)C2", "note": "[Compound 62, 5-Ethyl-4-(2-(6-(4-isopropyl-4H-1,2,4-triazol-3-yl)pyridin-2-yl)-3-oxoisoindolin-5-yl)thiophene-2-carboxylic Acid]", "pIC50": 8.17}
{"smiles": "CC(C)n1cnnc1-c1cccc(N2Cc3ccc(-c4ncc5ccc(C(=O)O)cc5n4)cc3C2=O)n1", "note": "[Compound 125, 2-(2-(6-(4-Isopropyl-4H-1,2,4-triazol-3-yl)pyridin-2-yl)-3-oxoisoindolin-5-yl)quinazoline-7-carboxylic Acid]", "pIC50": 8.15}
{"smiles": "COc1cc(N)c(-c2ccc3c(c2)C(=O)N(c2cccc(-c4nncn4C(C)C)n2)C3)cc1C(=O)O", "note": "[Compound 66, 4-Amino-5-(2-(6-(4-isopropyl-4H-1,2,4-triazol-3-yl)pyridin-2-yl)-3-oxoisoindolin-5-yl)-2-methoxybenzoic Acid]", "pIC50": 8.05}
{"smiles": "CC(C)n1cnnc1-c1cccc(N2Cc3ccc(-c4ccn5ncc(C(=O)O)c5n4)cc3C2=O)n1", "note": "[Compound 124, 5-(2-(6-(4-Isopropyl-4H-1,2,4-triazol-3-yl)pyridin-2-yl)-3-oxoisoindolin-5-yl)pyrazolo[1,5-a]pyrimidine-3-carboxylic Acid]", "pIC50": 8.08}
{"smiles": "CC(C)n1cnnc1-c1cccc(N2Cc3ccc(-c4ccc(C(=O)O)cc4CO)cc3C2=O)n1", "note": "[Compound 58, 3-(Hydroxymethyl)-4-(2-(6-(4-isopropyl-4H-1,2,4-triazol-3-yl)pyridin-2-yl)-3-oxoisoindolin-5-yl)benzoic Acid]", "pIC50": 8.29}
{"smiles": "COC(=O)c1ccc(F)c(-c2ccc3c(c2)C(=O)N(c2cccc(-c4nncn4C4CC4)n2)C3)c1", "note": "[Compound 101, Methyl 3-(2-(6-(4-cyclopropyl-4H-1,2,4-triazol-3-yl)pyridin-2-yl)-3-oxoisoindolin-5-yl)-4-fluorobenzoate]", "pIC50": 8.48}
{"smiles": "O=C1c2cc(-c3cccc(-c4nn[nH]n4)c3)ccc2CN1c1cccc(-c2nncn2C2CC2)n1", "note": "[Compound 110, 6-(3-(2H-Tetrazol-5-yl)phenyl)-2-(6-(4-cyclopropyl-4H-1,2,4-triazol-3-yl)pyridin-2-yl)isoindolin-1-one]", "pIC50": 8.26}
{"smiles": "COC(=O)c1ccc(-c2ccc3c(c2)C(=O)N(c2cccc(-c4nncn4C(C)C)n2)C3)cc1", "note": "[Compound 81, Methyl 4-(2-(6-(4-isopropyl-4H-1,2,4-triazol-3-yl)pyridin-2-yl)-3-oxoisoindolin-5-yl)benzoate]", "pIC50": 7.83}
{"smiles": "O=C(O)C1CCCN(c2ccc3c(c2)C(=O)N(c2cccc(-c4nncn4C4CC4)n2)C3)C1", "note": "(centres unmarked) [Compound 131, 1-(2-(6-(4-Cyclopropyl-4H-1,2,4-triazol-3-yl)pyridin-2-yl)-3-oxoisoindolin-5-yl)piperidine-3-carboxylic Acid]", "pIC50": 7.66}
{"smiles": "CC(C)n1cnnc1-c1cccc(N2Cc3ccc(-c4c(F)cccc4C(=O)O)cc3C2=O)n1", "note": "[Compound 70, 3-Fluoro-2-(2-(6-(4-isopropyl-4H-1,2,4-triazol-3-yl)pyridin-2-yl)-3-oxoisoindolin-5-yl)benzoic Acid]", "pIC50": 6.80}
{"smiles": "O=C(O)CC1CCN(c2ccc3c(c2)C(=O)N(c2cccc(-c4nncn4C4CC4)n2)C3)CC1", "note": "[Compound 130, 2-(1-(2-(6-(4-Cyclopropyl-4H-1,2,4-triazol-3-yl)pyridin-2-yl)-3-oxoisoindolin-5-yl)piperidin-4-yl)acetic Acid]", "pIC50": 7.72}
{"smiles": "CC(C)n1cnnc1-c1cccc(N2Cc3ccc([C@H]4CC[C@@H](C(=O)O)CC4)cc3C2=O)n1", "note": "[Compound 127, cis-4-(2-(6-(4-Isopropyl-4H-1,2,4-triazol-3-yl)pyridin-2-yl)-3-oxoisoindolin-5-yl)cyclohexane-1-carboxylic acid]", "pIC50": 7.84}
{"smiles": "COC(=O)C(C)(C)c1ccc(-c2ccc3c(c2)C(=O)N(c2cccc(-c4nncn4C(C)C)n2)C3)cc1", "note": "[Compound 88, Methyl 2-(4-(2-(6-(4-isopropyl-4H-1,2,4-triazol-3-yl)pyridin-2-yl)-3-oxoisoindolin-5-yl)phenyl)-2-methylpropanoate]", "pIC50": 8.31}
{"smiles": "CC(C)n1cnnc1-c1cccc(N2Cc3ccc(-c4ccc5c(C(=O)O)cnn5c4)cc3C2=O)n1", "note": "[Compound 122, 6-(2-(6-(4-Isopropyl-4H-1,2,4-triazol-3-yl)pyridin-2-yl)-3-oxoisoindolin-5-yl)pyrazolo[1,5-a]pyridine-3-carboxylic Acid]", "pIC50": 8.41}
{"smiles": "COc1ccc(C(=O)O)cc1-c1ccc2c(c1)C(=O)N(c1cccc(-c3nncn3C(C)C)n1)C2", "note": "[Compound 8, 3-(2-(6-(4-Isopropyl-4H-1,2,4-triazol-3-yl)pyridin-2-yl)-3-oxoisoindolin-5-yl)-4-methoxybenzoic Acid]", "pIC50": 7.97}
{"smiles": "CC(C)n1cnnc1-c1cccc(N2Cc3ccc(-c4cc(F)cc(C(=O)O)c4)cc3C2=O)n1", "note": "[Compound 4, 3-Fluoro-5-(2-(6-(4-isopropyl-4H-1,2,4-triazol-3-yl)pyridin-2-yl)-3-oxoisoindolin-5-yl)benzoic Acid]", "pIC50": 8.17}
{"smiles": "CC(C)n1cnnc1-c1cccc(N2Cc3ccc(-c4cccc(C(=O)O)c4F)cc3C2=O)n1", "note": "[Compound 2, 2-Fluoro-3-(2-(6-(4-isopropyl-4H-1,2,4-triazol-3-yl)pyridin-2-yl)-3-oxoisoindolin-5-yl) Benzoic Acid]", "pIC50": 8.37}
{"smiles": "O=C(O)c1ccc(-c2ccc3c(c2)C(=O)N(c2cccc(-c4nncn4C4CC4)n2)C3)cc1", "note": "[Compound 71, 4-(2-(6-(4-Cyclopropyl-4H-1,2,4-triazol-3-yl)pyridin-2-yl)-3-oxoisoindolin-5-yl)benzoic Acid]", "pIC50": 8.37}
{"smiles": "CC(C)n1cnnc1-c1cccc(N2Cc3ccc(-c4ccc(CO)c(C(=O)O)c4)cc3C2=O)n1", "note": "[Compound 35, 2-(Hydroxymethyl)-5-(2-(6-(4-isopropyl-4H-1,2,4-triazol-3-yl)pyridin-2-yl)-3-oxoisoindolin-5-yl)benzoic Acid]", "pIC50": 8.40}
